Columns and labels:
Format in all cases: in vivo
[1] = system: diamondback moth (Plutella xylostella); assay: Test A: control of diamondback moth on radish plant, foliar spray; conditions: sprayed at 50 ppm; neonate larvae on radish; assessed after 6 days; replicated three times
From the text: For evaluating control of diamondback moth (Plutella xylostella) the test unit consisted of a small open container with a 12-14-day-old radish plant inside. This was pre-infested with about 50 neonate larvae that were dispensed into the test unit via corn-cob grits using a bazooka inoculator. The larvae moved onto the test plant after being dispensed into the test unit.
(§1) Test compounds were formulated using a solution containing 10% acetone, 90% water and 300 ppm X-77™ Spreader Lo-Foam Formula non-ionic surfactant containing alkylarylpolyoxyethylene, free fatty acids, glycols and isopropanol (Loveland Industries, Inc. Greeley, Colo., USA). The formulated compounds were applied in 1 mL of liquid through a SUJ2 atomizer nozzle with ⅛ JJ custom body (Spraying Systems Co. Wheaton, Ill., USA) positioned 1.27 cm (0.5 inches) above the top of each test unit. All experimental compounds in these tests were sprayed at 50 ppm, and the test was replicated three times. After spraying of the formulated test compound, each test unit was allowed to dry for 1 h and then a black, screened cap was placed on top. The test units were held for 6 days in a growth chamber at 25° C. and 70% relative humidity. Plant feeding damage was then visually assessed based on foliage consumed and a pest mortality rating was also counted and calculated for each test unit.

[2] = system: fall armyworm (Spodoptera frugiperda); assay: Test B: control of fall armyworm on corn (maize) plant, foliar spray; conditions: sprayed at 50 ppm; 1-day-old larvae on corn; replicated three times
Description: as §1
For evaluating control of fall armyworm (Spodoptera frugiperda) the test unit consisted of a small open container with a 4-5-day-old corn (maize) plant inside. This was pre-infested (using a core sampler) with 10-15 1-day-old larvae on a piece of insect diet. Test compounds were formulated and sprayed at 50 ppm as described for Test A and replicated three times. After spraying, the test units were maintained in a growth chamber and then the control efficacy was rated for each test unit as described for Test A.

[3] = system: western flower thrips (Frankliniella occidentalis); assay: Test E: control of western flower thrips on Soleil bean plant, contact and/or systemic; conditions: adult thrips, assessed after 6 days, replicated three times
Description: as §1
For evaluating control of the western flower thrips (Frankliniella occidentalis) through contact and/or systemic means, the test unit consisted of a small open container with a 5-7 day old Soleil Bean plant inside. Test compounds were formulated and sprayed as described for Test A. All experimental compounds in these tests were sprayed at 250 or 50 ppm as noted, and the test was replicated three times. After spraying, the test units were allowed to dry for 1 hour and then 22-27 adult thrips were added to each unit and then a black, screened cap was placed on top. The test units were held for 6 days at 25° C. and 45-55% relative humidity. A mortality rating was assessed along with a plant damage rating for each test unit.

SMILES	control efficacy (feeding damage or mortality): very good to excellent levels [1]	control efficacy (feeding damage or mortality): very good to excellent levels [2]	control efficacy (feeding damage or mortality): very good to excellent levels ([3]; sprayed at 250 ppm)	control efficacy (feeding damage or mortality): very good to excellent levels ([3]; sprayed at 50 ppm)
O=C(NCC(Cl)CCCCl)c1ccc(C2=NOC(c3cc(Cl)cc(Cl)c3)(C(F)(F)F)C2)c2ccccc12 (mixture of isomers) [Compound 14]	20% or less feeding damage or 80% or more mortality	20% or less feeding damage or 80% or more mortality	–	–
CCC(CO)NC(=O)c1ccc(C2=NOC(c3cccc(C(F)(F)F)c3)(C(F)(F)F)C2)c2ccccc12 (mixture of isomers) [Compound 16]	20% or less feeding damage or 80% or more mortality	20% or less feeding damage or 80% or more mortality	–	–
CC(NC(=O)c1ccc(C2=NOC(c3cc(C(F)(F)F)cc(C(F)(F)F)c3)(C(F)(F)F)C2)c2ccccc12)C(=O)O (mixture of isomers) [Compound 31]	20% or less feeding damage or 80% or more mortality	20% or less feeding damage or 80% or more mortality	20% or less feeding damage or 80% or more mortality	–
CC(NC(=O)c1ccc(C2=NOC(c3cc(Cl)cc(C(F)(F)F)c3)(C(F)(F)F)C2)c2ccccc12)C(=O)O (mixture of isomers) [Compound 32]	20% or less feeding damage or 80% or more mortality	20% or less feeding damage or 80% or more mortality	–	–
CC(NC(=O)c1ccc(C2=NOC(c3cc(Br)cc(C(F)(F)F)c3)(C(F)(F)F)C2)c2ccccc12)C(=O)O (mixture of isomers) [Compound 38]	20% or less feeding damage or 80% or more mortality	20% or less feeding damage or 80% or more mortality	–	–
CC(=O)N(C)CCCNC(=O)c1ccc(C2=NOC(c3cc(Cl)cc(Cl)c3)(C(F)(F)F)C2)c2ccccc12 (racemic) [Compound 4]	20% or less feeding damage or 80% or more mortality	20% or less feeding damage or 80% or more mortality	20% or less feeding damage or 80% or more mortality	20% or less feeding damage or 80% or more mortality
O=C(O)CNC(=O)c1ccc(C2=NOC(c3cc(C(F)(F)F)cc(C(F)(F)F)c3)(C(F)(F)F)C2)c2ccccc12 (racemic) [Compound 15]	20% or less feeding damage or 80% or more mortality	20% or less feeding damage or 80% or more mortality	–	–
O=C(NCCCSCC(F)(F)F)c1ccc(C2=NOC(c3cccc(C(F)(F)F)c3)(C(F)(F)F)C2)c2ccccc12 (racemic) [Compound 21]	20% or less feeding damage or 80% or more mortality	20% or less feeding damage or 80% or more mortality	–	–
O=C(NCCSCC(F)(F)F)c1ccc(C2=NOC(c3cccc(C(F)(F)F)c3)(C(F)(F)F)C2)c2ccccc12 (racemic) [Compound 22]	20% or less feeding damage or 80% or more mortality	20% or less feeding damage or 80% or more mortality	20% or less feeding damage or 80% or more mortality	20% or less feeding damage or 80% or more mortality
O=C(NCCn1ccc(C(F)(F)F)n1)c1ccc(C2=NOC(c3cccc(C(F)(F)F)c3)(C(F)(F)F)C2)c2ccccc12 (centres unmarked) [Compound 17]	20% or less feeding damage or 80% or more mortality	20% or less feeding damage or 80% or more mortality	–	–
O=C(NCCn1cncn1)c1ccc(C2=NOC(c3cccc(C(F)(F)F)c3)(C(F)(F)F)C2)c2ccccc12 (centres unmarked) [Compound 18]	20% or less feeding damage or 80% or more mortality	20% or less feeding damage or 80% or more mortality	–	–
CC1(C)OCC(CNC(=O)c2ccc(C3=NOC(c4cccc(C(F)(F)F)c4)(C(F)(F)F)C3)c3ccccc23)O1 (centres unmarked) [Compound 19]	20% or less feeding damage or 80% or more mortality	20% or less feeding damage or 80% or more mortality	–	–
O=C(NCC1CCCO1)c1ccc(C2=NOC(c3cccc(C(F)(F)F)c3)(C(F)(F)F)C2)c2ccccc12 (centres unmarked) [Compound 20]	20% or less feeding damage or 80% or more mortality	20% or less feeding damage or 80% or more mortality	–	–
O=C(NCC1CCCO1)c1ccc(C2=NOC(c3cc(C(F)(F)F)cc(C(F)(F)F)c3)(C(F)(F)F)C2)c2ccccc12 (centres unmarked) [Compound 27]	20% or less feeding damage or 80% or more mortality	20% or less feeding damage or 80% or more mortality	–	–
O=C(CNC(=O)c1ccc(C2=NOC(c3cc(Cl)cc(Cl)c3)(C(F)(F)F)C2)c2ccccc12)NCC1CC1 (centres unmarked) [Compound 44]	20% or less feeding damage or 80% or more mortality	20% or less feeding damage or 80% or more mortality	20% or less feeding damage or 80% or more mortality	20% or less feeding damage or 80% or more mortality
O=C(CNC(=O)c1ccc(C2=NOC(c3cc(Cl)cc(Cl)c3)(C(F)(F)F)C2)c2ccccc12)NC1CCCCC1 (centres unmarked) [Compound 51]	20% or less feeding damage or 80% or more mortality	20% or less feeding damage or 80% or more mortality	–	–
O=C(CNC(=O)c1ccc(C2=NOC(c3cc(Cl)cc(Cl)c3)(C(F)(F)F)C2)c2ccccc12)NC1CCCC1 (centres unmarked) [Compound 52]	20% or less feeding damage or 80% or more mortality	20% or less feeding damage or 80% or more mortality	–	–
O=C(CNC(=O)c1ccc(C2=NOC(c3cccc(C(F)(F)F)c3)(C(F)(F)F)C2)c2ccccc12)NC1CC1 (centres unmarked) [Compound 54]	20% or less feeding damage or 80% or more mortality	20% or less feeding damage or 80% or more mortality	–	–
O=C(CNC(=O)c1ccc(C2=NOC(c3cccc(Br)c3)(C(F)(F)F)C2)c2ccccc12)NCC1CC1 (centres unmarked) [Compound 56]	20% or less feeding damage or 80% or more mortality	20% or less feeding damage or 80% or more mortality	–	–
O=C(CNC(=O)c1ccc(C2=NOC(c3cccc(OC(F)(F)F)c3)(C(F)(F)F)C2)c2ccccc12)NCC1CC1 (centres unmarked) [Compound 60]	20% or less feeding damage or 80% or more mortality	20% or less feeding damage or 80% or more mortality	–	–
O=C(NCC(=O)N1CCCC1C(F)(F)F)c1ccc(C2=NOC(c3cc(Cl)cc(Cl)c3)(C(F)(F)F)C2)c2ccccc12 (centres unmarked) [Compound 91]	20% or less feeding damage or 80% or more mortality	20% or less feeding damage or 80% or more mortality	–	–
O=C(NCC(F)(F)F)[C@H]1CCCN1C(=O)c1ccc(C2=NOC(c3cc(Cl)cc(Cl)c3)(C(F)(F)F)C2)c2ccccc12 (some centres unmarked) [Compound 102]	20% or less feeding damage or 80% or more mortality	20% or less feeding damage or 80% or more mortality	–	–
Cn1ccc2c(C(=O)NCC[S+](C)[O-])ccc(C3=NOC(c4cc(Cl)cc(Cl)c4)(C(F)(F)F)C3)c21 (centres unmarked) [Compound 111]	20% or less feeding damage or 80% or more mortality	20% or less feeding damage or 80% or more mortality	–	–

— patent US9095138B2, “Isoxazoline insecticides” (E.I. du Pont de Nemours and Company, priority 2007, dated 2015)
